Experimental data reported in the supplement of paper PMC11451515.

Key:
Conditions in all cases: 48 h
P12-Ichikawa [1] = experiment: AUC of viability dose-response curve (% viability x log10 dose units); higher = less sensitive
In short: (§1)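 Over 48 h at 37°C, leukemia cells in 1536-well plates (500 or 1000 cells/well), adapted to each medium, received library compounds in DMSO at 11 threefold doses from 47 μM to 0.79 nM. CellTiter-Glo One luminescence, normalised per plate to DMSO and cell-free wells, was fitted by a four-parameter log-logistic function of log10 dose. The area under the curve was then integrated by trapezoidal rule, after scaling curves above full viability and removing those that failed quality control.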

NOMO1 [2] = experiment: as above
In short: as §1

SEM cells [3] = experiment: as above
In short: as §1

P12-Ichikawa [4] = experiment: cell viability relative to DMSO control; higher = less cytotoxic
In short: (§2)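 NOMO1 or SEM (500 cells/well) or P12-Ichikawa (1000 cells/well) leukemia cells were adapted for at least four passages in each medium. They were seeded in 1536-well plates (5 μl) and pin-dosed with library compounds in DMSO over an 11-point threefold series, 47 μM to 0.79 nM. CellTiter-Glo One luminescence was read after 48 h at 37°C. Viability is the per-plate percentage relative to DMSO wells, with cell-free wells as background.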

NOMO1 [5] = experiment: as above
In short: as §2

SEM cells [6] = experiment: as above
In short: as §2

C=CCn1c(=O)c2cnc(Nc3ccc(N4CCN(C)CC4)cc3)nc2n1-c1cccc(C(C)(C)O)n1
AUC of viability dose-response curve
Conditions | NOMO1 [2] | P12-Ichikawa [1] | SEM cells [3]
HPLM + 10% dialyzed FBS | 310 | 336 | 299
RPMI 5 mM glucose + 10% FBS | 338 | 362 | 301
RPMI 5 mM glucose + 10% dialyzed FBS | 316 | 354 | 270

cell viability [%]
Conditions | NOMO1 [5] | P12-Ichikawa [4] | SEM cells [6]
HPLM + 10% dialyzed FBS, 0.000781 µM | 125 | 120 | 117
HPLM + 10% dialyzed FBS, 0.00234 µM | 116 | 116 | 118
HPLM + 10% dialyzed FBS, 0.00702 µM | 123 | 121 | 127
HPLM + 10% dialyzed FBS, 0.0211 µM | 122 | 125 | 110
HPLM + 10% dialyzed FBS, 0.0632 µM | 125 | 110 | 98.6
HPLM + 10% dialyzed FBS, 0.19 µM | 96.2 | 111 | 81.4
HPLM + 10% dialyzed FBS, 0.569 µM | 52.1 | 99.3 | 61.4
HPLM + 10% dialyzed FBS, 1.71 µM | 31.8 | 43.7 | 28.3
HPLM + 10% dialyzed FBS, 5.12 µM | 24.3 | 17 | 25.7
HPLM + 10% dialyzed FBS, 15.4 µM | 28.1 | 15.9 | 24.5
HPLM + 10% dialyzed FBS, 46.1 µM | 29.2 | 17.4 | 29.4
RPMI 5 mM glucose + 10% FBS, 0.000781 µM | 118 | – | –
RPMI 5 mM glucose + 10% FBS, 0.00234 µM | 117 | – | –
RPMI 5 mM glucose + 10% FBS, 0.00702 µM | 138 | – | –
RPMI 5 mM glucose + 10% FBS, 0.0211 µM | 128 | – | –
RPMI 5 mM glucose + 10% FBS, 0.0632 µM | 140 | – | –
RPMI 5 mM glucose + 10% FBS, 0.19 µM | 132 | – | –
RPMI 5 mM glucose + 10% FBS, 0.569 µM | 122 | – | –
RPMI 5 mM glucose + 10% FBS, 1.71 µM | 36.9 | – | –
RPMI 5 mM glucose + 10% FBS, 5.12 µM | 18.5 | – | –
RPMI 5 mM glucose + 10% FBS, 15.4 µM | 17.9 | – | –
RPMI 5 mM glucose + 10% FBS, 46.1 µM | 18.6 | – | –
RPMI 5 mM glucose + 10% dialyzed FBS, 0.000781 µM | – | – | 111
RPMI 5 mM glucose + 10% dialyzed FBS, 0.00234 µM | – | – | 119
RPMI 5 mM glucose + 10% dialyzed FBS, 0.00702 µM | – | – | 135
RPMI 5 mM glucose + 10% dialyzed FBS, 0.0211 µM | – | – | 93.5
RPMI 5 mM glucose + 10% dialyzed FBS, 0.0632 µM | – | – | 90.8
RPMI 5 mM glucose + 10% dialyzed FBS, 0.19 µM | – | – | 64.6
RPMI 5 mM glucose + 10% dialyzed FBS, 0.569 µM | – | – | 52.7
RPMI 5 mM glucose + 10% dialyzed FBS, 1.71 µM | – | – | 26.3
RPMI 5 mM glucose + 10% dialyzed FBS, 5.12 µM | – | – | 15.7
RPMI 5 mM glucose + 10% dialyzed FBS, 15.4 µM | – | – | 19.3
RPMI 5 mM glucose + 10% dialyzed FBS, 46.1 µM | – | – | 21.8

CO[C@H]1C[C@@H]2CC[C@@H](C)[C@@](O)(O2)C(=O)C(=O)N2CCCC[C@H]2C(=O)O[C@H]([C@H](C)C[C@@H]2CC[C@@H](OCCO)[C@H](OC)C2)CC(=O)[C@H](C)/C=C(/C)[C@@H](O)[C@@H](OC)C(=O)[C@H](C)C[C@H](C)\C=C/C=C\C=C/1C
AUC of viability dose-response curve
Conditions | NOMO1 [2] | P12-Ichikawa [1] | SEM cells [3]
HPLM + 10% dialyzed FBS | 393 | 420 | 240
RPMI 5 mM glucose + 10% FBS | 421 | 329 | 234
RPMI 5 mM glucose + 10% dialyzed FBS | 370 | 362 | 233

cell viability [%]
Conditions | NOMO1 [5] | P12-Ichikawa [4] | SEM cells [6]
HPLM + 10% dialyzed FBS, 0.000781 µM | 91.8 | 101 | 47.5
HPLM + 10% dialyzed FBS, 0.00234 µM | 97.5 | 109 | 91.9
HPLM + 10% dialyzed FBS, 0.00702 µM | 95.7 | 104 | 74.6
HPLM + 10% dialyzed FBS, 0.0211 µM | 92.9 | 94.1 | 65.2
HPLM + 10% dialyzed FBS, 0.0632 µM | 81.7 | 99.9 | 77.2
HPLM + 10% dialyzed FBS, 0.19 µM | 95.4 | 98.9 | 58.6
HPLM + 10% dialyzed FBS, 0.569 µM | 80.7 | 96.5 | 42.7
HPLM + 10% dialyzed FBS, 1.71 µM | 68.8 | 86.6 | 42.1
HPLM + 10% dialyzed FBS, 5.12 µM | 73.8 | 76.7 | 20.8
HPLM + 10% dialyzed FBS, 15.4 µM | 64.1 | 44.7 | 10.7
HPLM + 10% dialyzed FBS, 46.1 µM | 57.4 | 50.3 | 14.2
RPMI 5 mM glucose + 10% FBS, 0.000781 µM | 86.5 | 82.5 | 51.7
RPMI 5 mM glucose + 10% FBS, 0.00234 µM | 94.6 | 94 | 86.2
RPMI 5 mM glucose + 10% FBS, 0.00702 µM | 97.8 | 89.6 | 71.1
RPMI 5 mM glucose + 10% FBS, 0.0211 µM | 99.4 | 79.2 | 71.7
RPMI 5 mM glucose + 10% FBS, 0.0632 µM | 98.4 | 77.8 | 75
RPMI 5 mM glucose + 10% FBS, 0.19 µM | 94.2 | 77.7 | 64.9
RPMI 5 mM glucose + 10% FBS, 0.569 µM | 85.4 | 68.8 | 41.5
RPMI 5 mM glucose + 10% FBS, 1.71 µM | 88 | 70.6 | 28.4
RPMI 5 mM glucose + 10% FBS, 5.12 µM | 84.8 | 51.8 | 17.2
RPMI 5 mM glucose + 10% FBS, 15.4 µM | 61.3 | 25.7 | 12.9
RPMI 5 mM glucose + 10% FBS, 46.1 µM | 70.8 | 26.1 | 12.6
RPMI 5 mM glucose + 10% dialyzed FBS, 0.000781 µM | 85 | 90.8 | 50.8
RPMI 5 mM glucose + 10% dialyzed FBS, 0.00234 µM | 91.2 | 99.1 | 84
RPMI 5 mM glucose + 10% dialyzed FBS, 0.00702 µM | 84.5 | 93.7 | 73.8
RPMI 5 mM glucose + 10% dialyzed FBS, 0.0211 µM | 76.7 | 84.9 | 65.4
RPMI 5 mM glucose + 10% dialyzed FBS, 0.0632 µM | 85 | 85.8 | 68.3
RPMI 5 mM glucose + 10% dialyzed FBS, 0.19 µM | 78.1 | 87.1 | 63.4
RPMI 5 mM glucose + 10% dialyzed FBS, 0.569 µM | 78.7 | 80.5 | 49.5
RPMI 5 mM glucose + 10% dialyzed FBS, 1.71 µM | 73.1 | 78.1 | 37
RPMI 5 mM glucose + 10% dialyzed FBS, 5.12 µM | 76.3 | 51.4 | 13.7
RPMI 5 mM glucose + 10% dialyzed FBS, 15.4 µM | 58.9 | 33.4 | 10.4
RPMI 5 mM glucose + 10% dialyzed FBS, 46.1 µM | 61.5 | 33.9 | 11.8
